Measurements as given in US20240025919A1, “AZA-TETRACYCLIC OXAZEPINE COMPOUNDS AND USES THEREOF” (Genentech, Inc., priority 2022, published 2024).
Read-outs that look alike come from different tables or passages of the source.

Legend:
[1] = molecular target: KRAS G12D (Homo sapiens (Human), UniProt P01116, G12D); assay: KRAS G12D LoEnz Biochemical Assay, BODIPY-GDP Exchange TR-FRET (SOS1-mediated nucleotide exchange); conditions: read-out: KRas (G12D) GDP HTRF IC50
Method: Example 500: KRAS G12D LoEnz Biochemical Assay, BODIPY-GDP Exchange TR-FRET. Biochemical compound potencies are assessed by evaluating inhibition of SOS1I-mediated nucleotide exchange in KRAS G121D. In this assay, the SOS1-promoted exchange of fluorescently-labeled GDP (BOPIDY-GDP) is monitored by time-resolved fluorescence resonance energy transfer (TR-FRET). Compounds solubilized in DMS0 are dispensed as concentration series into 384-well white assay plates. A preformed complex of biotin-tagged recombinant human KRAS (0.06 nM mutant G1 2D) and 0.06 nM terbium-labeled streptavidin (CisBIO) prepared in 10 uL/well assay buffer (20 mM HEPES, pH 7.5, 50 mM NaCl, 10 mMMMgCl2, 0.0100 Tween-20 and 1 mM dithiothreitol) is added and allowed to incubate for 10-minutes at room temperature. The reaction is initiated with the addition of 5 uL 300 nM recombinant human SOS1 and 300 nM BODIPY-GDP in assay buffer. After a 120-minute incubation, the fluorescence is measured with excitation at 337 nm and emission at 490 and 520 nm. The TR-FRET ratio is determined as the fluorescence at 520 nm divided by the fluorescence at 490 nm multiplied by 10,000. The results are normalized to percent inhibition based on control samples: DMSO (0% inhibition) and control compound at a concentration that inhibits completely (100% inhibition). The normalized TR-FRET results are plotted against compound concentration, and the data are fit to a 4-parameter Hill equation to determine the IC50 values.

[2] = molecular target: KRAS WT (Homo sapiens (Human), UniProt P01116); assay: KRAS WT Biochemical Assay, BODIPY-GDP Exchange TR-FRET (Example 501; 3 nM KRAS WT, 3 nM SOS1, 60-minute incubation)
KRAS WT, sequence (P01116-2 other isoform, or with tags, fused parts or gaps): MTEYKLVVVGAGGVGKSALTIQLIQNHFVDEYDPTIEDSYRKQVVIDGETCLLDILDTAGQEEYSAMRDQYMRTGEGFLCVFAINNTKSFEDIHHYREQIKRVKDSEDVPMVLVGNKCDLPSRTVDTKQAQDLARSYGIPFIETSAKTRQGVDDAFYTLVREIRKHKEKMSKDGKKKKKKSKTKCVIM
Method: Example 501: KRAS WT Biochemical Assay, BODIPY-GDP Exchange TR-FRET. Biochemical compound potencies are assessed by evaluating inhibition of SOS1-mediated nucleotide exchange in KRAS WT. In this assay, the SOS1-promoted exchange of fluorescently-labeled GDP (BOPIDY-GDP) is monitored by time-resolved fluorescence resonance energy transfer (TR-FRET). Compounds solubilized in DMSO are dispensed as concentration series into 384-well white assay plates, and 5 uL assay buffer (20 mM HEPES, pH 7.5, 50 mM NaCl, 10 mM MgCl2, 0.01% Tween-20 and 1 mM dithiothreitol) is added just prior to the start of the assay. A preformed complex of 3 nM biotin-tagged recombinant human KRAS WT and 0.3 nM terbium-labeled streptavidin (CisBIO) prepared in 5 uL/well assay buffer is added and allowed to incubate for 10-minutes at room temperature. The reaction is initiated with the addition of 5 uL 3 nM recombinant human SOS1 and 300 nM BODIPY-GDP in assay buffer. After a 60-minute incubation, the fluorescence is measured with excitation at 337 nm and emission at 490 and 520 nm. The TR-FRET ratio is determined as the fluorescence at 520 nm divided by the fluorescence at 490 nm multiplied by 10,000. The results are normalized to percent inhibition based on control samples: DMSO (0% inhibition) and control compound at a concentration that inhibits completely (100% inhibition). The normalized TR-FRET results are plotted against compound concentration, and the data are fit to a 4-parameter Hill equation to determine the IC50 values.

[3] = read-out: KRas(wt) GDP HTRF IC50

KRAS G12D, sequence (P01116-2 other isoform, or with tags, fused parts or gaps G12D): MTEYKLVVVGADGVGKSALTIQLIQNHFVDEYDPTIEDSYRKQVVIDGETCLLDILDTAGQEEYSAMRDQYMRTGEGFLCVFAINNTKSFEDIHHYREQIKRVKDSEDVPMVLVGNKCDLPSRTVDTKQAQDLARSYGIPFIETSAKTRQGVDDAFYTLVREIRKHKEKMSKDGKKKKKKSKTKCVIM

SMILES | IC50 [1] [nM] | IC50 [2, 3] [nM] | IC50 ([2]; read-out: KRas HTRF IC50) [nM]
Cc1cc(N)c(F)c(-c2nc3c4c(ncnc4c2Cl)N2C[C@H]4CC[C@H](N4)[C@H]2[C@H](C)O3)c1C(F)(F)F (atropisomer, axis not shown) [Compound 95, 3-((5S,5aS,6S,9R)-1-chloro-5-methyl-5a,6,7,8,9,10-hexahydro-5H-4-oxa-3,10a,11,13,14-pentaaza-6,9-methanonaphtho[1,8-ab]heptalen-2-yl)-2-fluoro-5-methyl-4-(trifluoromethyl)aniline] | 26.6 | – | –
Cc1cc(N)c(F)c(-c2nc3c4c(nc(OCC56CCN5CC(F)(F)C6)nc4c2F)N2C[C@H]4CC[C@H](N4)[C@H]2[C@H](C)O3)c1C(F)(F)F (mixture of isomers) [Compound 33, 3-((5S,5aS,6S,9R)-12-((3,3-Difluoro-1-azabicyclo[3.2.0]heptan-5-yl)methoxy)-1-fluoro-5-methyl-5a,6,7,8,9,10-hexahydro-5H-4-oxa-3,10a,11,13,14-pentaaza-6,9-methanonaphtho[1,8-ab]heptalen-2-yl)-2-fluoro-5-methyl-4-(trifluoromethyl)aniline] | 0.23 | 7.53 | –
Cc1c(F)c(N)cc(-c2nc3c4c(nc(OCC56CCN5CC(F)(F)C6)nc4c2F)N2C[C@H]4CC[C@H](N4)[C@H]2[C@H](C(F)(F)F)O3)c1C(F)(F)F (mixture of isomers) [Compound 244, 5-((5R,5aS,6S,9R)-12-((3,3-Difluoro-1-azabicyclo[3.2.0]heptan-5-yl)methoxy)-1-fluoro-5-(trifluoromethyl)-5a,6,7,8,9,10-hexahydro-5H-4-oxa-3,10a,11,13,14-pentaaza-6,9-methanonaphtho[1,8-ab]heptalene-2-yl)-2-fluoro-3-methyl-4-(trifluoromethyl)aniline] | 0.52 | – | 11.9
Cc1nc(N)cc(-c2nc3c4c(nc(OCC5(CN6CC7CC(F)(F)C7C6)CC5)nc4c2F)N2C[C@H]4CC[C@H](N4)[C@H]2[C@H](C)O3)c1C(F)(F)F (mixture of isomers) [Compound 264, 4-((5S,5aS,6S,9R)-12-((1-((6,6-difluoro-3-azabicyclo[3.2.0]heptan-3-yl)methyl)cyclopropyl)methoxy)-1-fluoro-5-methyl-5a,6,7,8,9,10-hexahydro-5H-4-oxa-3,10a,11,13,14-pentaaza-6,9-methanonaphtho[1,8-ab]heptalene-2-yl)-6-methyl-5-(trifluoromethyl)pyridin-2-amine] | 0.33 | – | 19.2
Cc1c(F)c(N)cc(-c2nc3c4c(nc(OC[C@H]5CC[C@@H]6C(=O)N(C)CCN56)nc4c2F)N2C[C@H]4CC[C@H](N4)[C@H]2[C@H](C)O3)c1C(F)(F)F (relative stereo) [Compound 123, 6-((((5S,5aS,6S,9R)-2-(5-Amino-4-fluoro-3-methyl-2-(trifluoromethyl)phenyl)-1-fluoro-5-methyl-5a,6,7,8,9,10-hexahydro-5H-4-oxa-3,10a,11,13,14-pentaaza-6,9-methanonaphtho[1,8-ab]heptalen-12-yl)oxy)methyl)-2-methylhexahydropyrrolo[1,2-a]pyrazin-1(2H)-one] | 0.7 | – | –
C[C@@H]1Oc2nc(-c3cc(N)cc(F)c3C(F)(F)F)c(F)c3nc(OC[C@H]4CC[C@@H]5COC(C)(C)CN45)nc(c23)N2C[C@H]3CC[C@H](N3)[C@@H]12 (relative stereo) [Compound 125, 3-((5S,5aS,6S,9R)-12-((3,3-dimethylhexahydro-1H-pyrrolo[2,1-c][1,4]oxazin-6-yl)methoxy)-1-fluoro-5-methyl-5a,6,7,8,9,10-hexahydro-5H-4-oxa-3,10a,11,13,14-pentaaza-6,9-methanonaphtho[1,8-ab]heptalen-2-yl)-5-fluoro-4-(trifluoromethyl)aniline] | 0.23 | – | –
Cc1c(F)c(N)cc(-c2nc3c4c(nc(OC[C@@]56CCCN5C[C@H](F)C6)nc4c2F)N2CCNC[C@H]2[C@H](C)O3)c1C(F)(F)F (single isomer, unassigned) [235 (isomer 1)] | 65.8 | – | 143
Cc1c(F)c(N)cc(-c2nc3c4c(nc(OC[C@@]56CCCN5C[C@H](F)C6)nc4c2F)N2CCNC[C@H]2C(C)O3)c1C(F)(F)F (single isomer, unassigned) [235 (isomer 2)] | 0.48 | – | 2.63
Cc1c(F)c(N)cc(-c2nc3c4c(nc(OC[C@@]56CCCN5C[C@H](F)C6)nc4c2F)N2C[C@H]4CC[C@H](N4)[C@@H]2[C@H](C)O3)c1C(F)(F)F (single isomer, unassigned) [237 (isomer 1)] | 1910 | – | 1020
Cc1nc(N)cc(-c2nc3c4c(nc(OC[C@@]56CCN5CC(F)(F)C6)nc4c2F)N2C[C@H]4CC[C@H](N4)[C@H]2[C@H](C(F)(F)F)O3)c1C(F)(F)F (single isomer, unassigned) [252 (isomer 1)] | 1.17 | – | 25
C#Cc1cccc2cc(O)cc(-c3nc4c5c(nc(OC[C@]67CCN6CC(F)(F)C7)nc5c3F)N3C[C@H]5CC[C@H](N5)[C@H]3[C@H](C)O4)c12 (single isomer, unassigned) [Compound 19] | 0.08 | 1.83 | –
C#Cc1cccc2cc(O)cc(-c3nc4c5c(nc(OC[C@@]67CCN6CC(F)(F)C7)nc5c3F)N3C[C@H]5CC[C@H](N5)[C@H]3[C@H](C)O4)c12 (single isomer, unassigned) [Compound 20] | 0.12 | 6.55 | –
Cc1c(Cl)c(N)cc(-c2nc3c4c(nc(OC[C@@]56CCCN5C[C@H](F)C6)nc4c2F)N2C[C@H]4CC[C@H](N4)[C@H]2[C@H](C)O3)c1C(F)(F)F (single isomer, unassigned) [Compound 200] | 0.1 | – | –
Cc1nc(N)cc(-c2nc3c4c(nc(OCC56CCCN5CC(F)C6)nc4c2F)N2CC4CCC(N4)[C@H]2[C@@H](C(F)(F)F)O3)c1C(F)(F)F (stereo in doubt) [Compound 243, 4-((6R,9S)-1-fluoro-12-(((2S,7aR)-2-fluorotetrahydro-1H-pyrrolizin-7a(5H)-yl)methoxy)-5-(trifluoromethyl)-5a,6,7,8,9,10-hexahydro-5H-4-oxa-3,10a,11,13,14-pentaaza-6,9-methanonaphtho[1,8-ab]heptalene-2-yl)-6-methyl-5-(trifluoromethyl)pyridin-2-amine] | 581 | – | 3960
Cc1cc(N)c(Cl)c(-c2nc3c4c(nc(OC[C@@]56CCCN5C[C@H](F)C6)nc4c2F)N2C[C@H]4CC[C@H](N4)[C@H]2[C@H](C)O3)c1C(F)(F)F [Compound 199, 2-Chloro-3-((5S,5aS,6S,9R)-1-fluoro-12-(((2R,7aS)-2-fluorotetrahydro-1H-pyrrolizin-7a(5H)-yl)methoxy)-5-methyl-5a,6,7,8,9,10-hexahydro-5H-4-oxa-3,10a,11,13,14-pentaaza-6,9-methanonaphtho[1,8-ab]heptalen-2-yl)-5-methyl-4-(trifluoromethyl)aniline] | 0.17 | – | –
Cc1c(F)c(N)cc(-c2nc3c4c(nc(OC[C@@]56CCCN5C[C@H](F)C6)nc4c2F)N2C[C@H]4CC[C@H](N4)[C@H]2[C@@H](C(F)(F)F)O3)c1C(F)(F)F [Compound 246, 2-Fluoro-5-((5S,5aS,6S,9R)-1-fluoro-12-(((2R,7aS)-2-fluorotetrahydro-1H-pyrrolizin-7a(5H)-yl)methoxy)-5-(trifluoromethyl)-5a,6,7,8,9,10-hexahydro-5H-oxa-3,10a,11,13,14-pentaaza-6,9-methanonaphtho[1,8-ab]heptalene-2-yl)-3-methyl-4-(trifluoromethyl)aniline] | – | – | 1200
Cc1nc(N)cc(-c2nc3c4c(nc(OCC5(CN6CC7COCC(C6)C7(F)F)CC5)nc4c2F)N2C[C@H]4CC[C@H](N4)[C@H]2[C@H](C)O3)c1C(F)(F)F [Compound 266, 4-((5S,5aS,6S,9R)-12-((1-((9,9-difluoro-3-oxa-7-azabicyclo[3.3.1]nonon-7-yl)methyl)cyclopropyl)methoxy)-1-fluoro-5-methyl-5a,6,7,8,9,10-hexahydro-5H-4-oxa-3,10a,11,13,14-pentaaza-6,9-methanonaphtho[1,8-ab]heptalene-2-yl)-6-methyl-5-(trifluoromethyl)pyridin-2-amine] | – | – | 1100
